Tested on: Mycobacterium tuberculosis variant bovis
Assay: Antibacterial activity against Mycobacterium bovis BCG ATCC 35743 constitutive expressing GFP assessed as bacterial growth inhibition at 20 uM by CLSI protocol based broth microdilution method
Assay type: functional
Conditions: read-out: GI

SMILES | inhibition of growth at 20 µM [%]
C=C[C@]1(C)C[C@@H](OC(=O)CO)[C@@]2(C)C3=CC(=O)C[C@@]3(CC[C@H]2C)[C@@H](C)[C@@H]1O | 62
C=C[C@]1(C)C[C@@H](O)[C@@]2(C)C3C(=O)CC[C@@]3(CC[C@H]2C)[C@@H](C)[C@@H]1O (some centres undefined) | 48
C=C[C@]1(C)C[C@@H](OC(=O)CO)[C@@]2(C)C3C(=O)CC[C@@]3(CC[C@H]2C)[C@@H](C)[C@@H]1O (some centres undefined) | 50
C[C@@H]1CC[C@@]23CCC(=O)C2[C@]1(C)[C@H](OC(=O)CO)C[C@@](C)([C@H](O)CO)[C@@H](O)[C@@H]3C (some centres undefined) | 20
C=C[C@]1(C)C[C@@H](O)[C@@]2(C)C3[C@H](O)CC[C@@]3(CC[C@H]2C)[C@@H](C)[C@@H]1O (some centres undefined) | 36
C=C[C@]1(C)C[C@@H](OC(C)=O)[C@@]2(C)C3=CC(=O)C[C@@]3([C@H](O)C[C@H]2C)[C@@H](C)[C@@H]1O | 34
C=C[C@]1(C)C[C@@H](O)[C@@]2(C)C3CCC[C@@]3(CC[C@H]2C)[C@@H](C)C1 (some centres undefined) | 24
C=C[C@]1(C)C[C@@H](OC(C)=O)[C@@]2(C)C3[C@H](O)CC[C@@]3(CC[C@H]2C)[C@@H](C)[C@@H]1O (some centres undefined) | 43
C=C[C@]1(C)C[C@@H](OC(=O)CO)[C@@]2(C)C3C(=O)[C@H](O)CC3(CC[C@H]2C)[C@@H](C)[C@@H]1O (single isomer, unassigned) | 34
